Laboratory results published in publication PMC11513893, “Discovery of Oral Degraders of the ROS1 Fusion Protein with Potent Activity against Secondary Resistance Mutations” (Journal of Medicinal Chemistry, 2024).
pIC50: −log10 of the molar value.

Molecular target: ERBB4/HER4 (Homo sapiens, UniProt Q15303)
Test: Kinase assay
Format: biochemical
Conditions: average of duplicate measurements

Chain of ERBB4/HER4 (Q15303 26-1308): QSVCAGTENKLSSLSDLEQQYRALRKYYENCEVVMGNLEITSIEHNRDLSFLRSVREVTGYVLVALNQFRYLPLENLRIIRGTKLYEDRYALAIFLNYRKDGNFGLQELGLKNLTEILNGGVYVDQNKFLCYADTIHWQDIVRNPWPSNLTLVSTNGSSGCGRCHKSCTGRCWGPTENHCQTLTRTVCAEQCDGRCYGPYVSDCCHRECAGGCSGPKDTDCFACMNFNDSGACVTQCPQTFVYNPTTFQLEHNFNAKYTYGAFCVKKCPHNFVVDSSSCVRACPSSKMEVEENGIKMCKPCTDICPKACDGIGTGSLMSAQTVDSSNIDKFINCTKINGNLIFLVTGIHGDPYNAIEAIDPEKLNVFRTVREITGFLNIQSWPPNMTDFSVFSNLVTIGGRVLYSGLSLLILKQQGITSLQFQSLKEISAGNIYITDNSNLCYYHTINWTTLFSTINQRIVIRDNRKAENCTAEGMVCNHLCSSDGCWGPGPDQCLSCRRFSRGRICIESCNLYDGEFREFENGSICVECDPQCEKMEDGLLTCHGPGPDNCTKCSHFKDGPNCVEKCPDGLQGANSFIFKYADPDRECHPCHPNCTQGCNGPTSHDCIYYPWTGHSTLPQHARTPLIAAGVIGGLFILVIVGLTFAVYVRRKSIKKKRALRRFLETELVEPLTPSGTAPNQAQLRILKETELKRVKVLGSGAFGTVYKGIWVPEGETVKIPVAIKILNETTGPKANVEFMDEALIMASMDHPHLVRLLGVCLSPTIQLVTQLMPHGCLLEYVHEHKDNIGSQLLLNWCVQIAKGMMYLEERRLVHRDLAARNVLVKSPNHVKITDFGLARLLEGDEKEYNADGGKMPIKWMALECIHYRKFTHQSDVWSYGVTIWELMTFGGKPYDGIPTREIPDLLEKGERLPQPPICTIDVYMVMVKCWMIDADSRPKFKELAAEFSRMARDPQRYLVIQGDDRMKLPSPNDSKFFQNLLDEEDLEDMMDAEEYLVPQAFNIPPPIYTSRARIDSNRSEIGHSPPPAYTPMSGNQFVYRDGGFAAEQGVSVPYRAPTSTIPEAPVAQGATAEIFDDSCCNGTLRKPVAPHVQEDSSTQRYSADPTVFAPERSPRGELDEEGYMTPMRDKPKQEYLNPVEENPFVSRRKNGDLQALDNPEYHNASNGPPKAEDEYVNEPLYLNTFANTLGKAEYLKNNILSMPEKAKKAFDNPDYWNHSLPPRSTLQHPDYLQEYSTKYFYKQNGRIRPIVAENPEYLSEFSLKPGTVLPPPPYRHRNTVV

pIC50: 7.57
SMILES: COc1cc(N2CCC(N3CCN(CC4CCN(c5ccc6c(c5)CN(C5CCC(=O)NC5=O)C6=O)CC4)CC3)CC2)ccc1Nc1ncc(Cl)c(Nc2ccccc2P(C)(C)=O)n1 (stereo not shown) [9o, 3-(5-(4-((4-(1-(4-((5-Chloro-4-((2-(dimethylphosphoryl)phenyl)amino)pyrimidin-2-yl)amino)-3-methoxyphenyl)piperidin-4-yl)piperazin-1-yl)methyl)piperidin-1-yl)-1-oxoisoindolin-2-yl)piperidine-2,6-dione]
